In brackets after ≈: the same amount, converted by molar mass.
Legend:
KB = assay: Cytotoxicity against human KB cells; format: functional, cell-based
L1210 = assay: Cytotoxicity against mouse L1210 cells; format: functional, cell-based
Micrococcus luteus = assay: Antibacterial activity against Sarcina lutea; format: functional

Row | SMILES | IC50 (KB) | IC50 (L1210) | MIC (Micrococcus luteus)
1 | O[C@]12C=C(C3=NCCc4c3[nH]c3ccccc43)[C@@H]3CCN(CCCC/C=C\CC1)C[C@@]31C[C@@H]3/C=C\CCCCN3[C@H]12 [3,4-DIHYDROMANZAMINE A] | 0.61 µg/mL (≈ 1.11 µM) | 0.48 µg/mL (≈ 0.871 µM) | 4 µg/mL (≈ 7.26 µM)
2 | Oc1ccc2[nH]c3c(C4=C[C@@]5(O)CC/C=C\CCCCN6CCC4[C@]4(C[C@@H]7/C=C\CCCCN7[C@H]45)C6)nccc3c2c1 (stereo partly specified) | 2.5 µg/mL (≈ 4.43 µM) | 1.5 µg/mL (≈ 2.66 µM) | 1.25 µg/mL (≈ 2.21 µM)

Reference: ChEMBL document CHEMBL1148095, “6-Hydroxymanzamine A and 3,4-dihydromanzamine A, new alkaloids from the Okinawan marine sponge Amphimedon Sp” (J Nat Prod, 1994)
